Source: PMC9532951, “Identification and characterization of a novel SNAT2 (SLC38A2) inhibitor reveals synergy with glucose transport inhibition in cancer cells” (Frontiers in Pharmacology, 2022)
Values joined by “and” are separate entries in the source; they are usually repeats but may differ in a detail not shown here. Identical values can stand only once.

Assays:
HPAFII cells = assay: Growth assay (IncuCyte confluence), HPAFII; format: cell-based, human; design: key to Growth (Figure 6A) / cell confluence (Figure 6F): % confluence; settings: Bay876 1uM, replicates 1-3
Protocol: (§1) Cells were seeded on 96-well flat bottom plates at approximately 3000 cells/well and incubated in growth medium (DMEM/F12 supplemented with 10% FBS, 2 mM glutamine) for 24 h. The next day, the growth medium was aspirated and exchanged with 300 μL/well of growth medium containing compounds at the indicated concentration. For live cell analysis, plates were placed in the IncuCyte system (Essen Bioscience), which was housed in a cell incubator (37°C, humidified atmosphere composed of 95% air and 5% CO2) and confluence measured at 6-h intervals or at the assay endpoint when untreated control cells reached a confluency >90%. Antibiotics (10 U/mL penicillin and 10 μg/ml streptomycin) were included in the treatment solutions.
(§2) Growth curves were generated using the Gompertz function of OriginPro software: y=ae^−e^(−k(x−xc))
(§3) Where a is the maximum confluence or upper asymptote, k is the growth rate coefficient, xc is the time point at which 50% confluence is reached (inflection point) and e is Euler’s number. Cell growth data are shown as % confluence.
(§4) Synergism between drug combinations was quantified using ZIP synergy scoring as calculated by SynergyFinder ([Yadav et al., 2015]).

SKOV3 xenografts = tested on: SKOV3 xenografts; design: method as in Ma et al., 2018; settings: mice, ref Ma et al., 2018, cited from earlier work
HCC1806 cells [1] = assay: Assay of glycolytic activity (extracellular lactate); format: cell-based, human; settings: > 0.1 μM Bay-876
Protocol: Glycolytic activity was measured by detecting extracellular lactate levels over a 48-h time course. HCC1806 and HPAFII cells were seeded on a 24-well plate at approximately 500,000 and 700,000 cells/well, respectively, and incubated in growth medium overnight. The following day, the growth medium was aspirated and each well was washed once with growth medium and 1.3 ml of the treatment solution was added to begin the time-course. In addition to sampling the medium at the start of the experiment, 50 μL was collected from each well at the following time points: 9, 24 and 48 h. Samples were stored at −20°C until further use. Lactate was detected by an enzymatic assay, which consisted of combining in microcentrifuge tubes: 5 μl of sample, 45 μl of water; 25 μl of 40 mM NAD^+; 421 μl of buffer (1M glycine, 600 mM hydrazine sulfate, 5.6 mM EDTA; adjusted to pH 9.5 with sodium hydroxide); and 4 μL of L-lactate dehydrogenase solved at 300U/mL (3.33 mg/ml). The tubes were briefly vortexed and incubated for 15 min before transferring 200 μL of the mixture to a 96-well plate. The calibration curve spanned final concentrations from 5 to 500 μM. Absorbance was measured at 340 nm to detect NADH. Lactate production was normalised to total cellular protein per well as measured by the Bradford assay.

HCC1806 cells [2] = assay: Glutamine in media supernatant by LC-MS (glutamine consumption); format: cell-based, human; settings: Bay-876 1 μM
Protocol: Amino acids were analyzed with an Orbitrap Q-Exactive Plus coupled to an UltiMate 3000 RSLCnano system (Thermo Fisher) as described previously ([Gauthier-Coles et al., 2021]).

GLUT1 [3] = molecular target: T1, GLUT1 (Homo sapiens, UniProt P11166); assay: [14C]glucose uptake in HPAFII cells; format: cell-based; design: endogenous in cells; host or cells: MDA-MB-231 (A17), HPAFII (A18), SKOV3 (A19)
T1 sequence (P11166 1-492): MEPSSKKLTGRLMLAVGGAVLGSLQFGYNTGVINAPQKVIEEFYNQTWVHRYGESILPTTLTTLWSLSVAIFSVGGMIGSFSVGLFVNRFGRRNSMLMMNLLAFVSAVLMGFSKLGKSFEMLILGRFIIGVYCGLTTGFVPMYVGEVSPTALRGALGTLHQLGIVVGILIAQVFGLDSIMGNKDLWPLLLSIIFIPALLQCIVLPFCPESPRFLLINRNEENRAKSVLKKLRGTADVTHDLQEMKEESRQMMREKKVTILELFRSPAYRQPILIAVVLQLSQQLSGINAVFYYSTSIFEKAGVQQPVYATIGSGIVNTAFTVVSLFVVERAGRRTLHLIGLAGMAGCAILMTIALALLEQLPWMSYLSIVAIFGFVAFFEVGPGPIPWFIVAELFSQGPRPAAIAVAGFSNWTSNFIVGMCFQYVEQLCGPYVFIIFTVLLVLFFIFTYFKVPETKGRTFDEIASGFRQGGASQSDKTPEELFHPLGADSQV
Protocol: (§5) […] Modified Hanks HEPES-buffered salts solution (mHBSS; 137 mM NaCl; 5.4 mM KCl; 2.7 mM K2HPO4; 1 mM CaCl2; 0.5 mM MgCl2; 0.44 mM KH2PO4; 0.4 mM MgSO4; 5 mM D-glucose; 5 mM HEPES; pH 7.4) was used to wash and incubate cells where sodium dependent transport was measured, while N-methyl-D-glucamine (NMDG) and potassium salts substituted sodium in NMDG mHBSS to measure sodium independent uptake. For the assay, cells were seeded in 35 mm dishes and, once confluent, […] of ≥2000 cpm/nmol ([…]). After 6 min, cells were washed thrice with ice-cold mHBSS, lysed with 500 µl of 0.1 M HCl, detached with a cell scraper and triturated. A 400 µl aliquot was used for scintillation counting, while the remainder was saved for protein mass quantification by Bradford assay. Transport rates were normalised to the protein content of the culture dish.

GLUT1 [4] = molecular target: T1, GLUT1; assay: [14C]glucose uptake in MDA-MB-231 cells; format: cell-based; design: endogenous in cells; host or cells: MDA-MB-231 (A17)
GLUT1 [5] = molecular target: T1, GLUT1; assay: [14C]glucose uptake in SKOV3 cells; format: cell-based; design: endogenous in cells; host or cells: SKOV3 (A19)
Protocol: as §5

MDA-MB-231 cells = assay: Growth assay (IncuCyte confluence), MDA-MB-231; format: cell-based, human; design: key to Growth (Figure 6A) / cell confluence (Figure 6F): % confluence; settings: MDA-MB-231; Bay876 1uM; replicates 1-3
Protocol: as §1, §2, §3, §4

HCC1806 cells [6] = assay: Growth assay (IncuCyte confluence), HCC1806; format: cell-based, human; settings: Bay876 alone
Protocol: as §1, §2, §3

[7] = design: method as in Kopitz et al., 2016; settings: mice, cancer therapeutic dose; ref Kopitz et al., 2016; cited from earlier work
B0AT1 (SLC6A19) = molecular target: T2, B0AT1 (SLC6A19) (Homo sapiens, UniProt Q695T7); assay: Leucine uptake in CHO cells stably expressing human B0AT1 and collectrin; format: cell-based; settings: 150 µM leucine, hit compounds at 30 µM, n = 3
T2 construct: expressed in transfected cells
T2 sequence (Q695T7 1-634): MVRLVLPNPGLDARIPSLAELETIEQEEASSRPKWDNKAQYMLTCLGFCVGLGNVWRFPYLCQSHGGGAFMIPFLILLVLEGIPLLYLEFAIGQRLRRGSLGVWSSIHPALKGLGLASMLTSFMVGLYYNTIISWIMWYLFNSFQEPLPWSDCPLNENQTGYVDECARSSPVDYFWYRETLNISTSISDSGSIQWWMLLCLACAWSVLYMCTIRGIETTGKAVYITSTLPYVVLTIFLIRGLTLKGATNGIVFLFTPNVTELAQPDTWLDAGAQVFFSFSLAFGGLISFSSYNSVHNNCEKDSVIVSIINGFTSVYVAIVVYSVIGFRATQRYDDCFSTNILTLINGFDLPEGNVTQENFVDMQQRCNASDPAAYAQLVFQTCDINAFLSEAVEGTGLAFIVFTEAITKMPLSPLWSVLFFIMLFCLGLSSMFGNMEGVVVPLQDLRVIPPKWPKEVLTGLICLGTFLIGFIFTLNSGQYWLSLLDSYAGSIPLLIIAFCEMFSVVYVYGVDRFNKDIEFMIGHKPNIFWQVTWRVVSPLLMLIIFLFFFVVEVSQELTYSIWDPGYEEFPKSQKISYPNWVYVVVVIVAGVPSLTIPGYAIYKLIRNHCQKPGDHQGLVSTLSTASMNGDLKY
T2 sequence (Q9HBJ8 15-222 partner): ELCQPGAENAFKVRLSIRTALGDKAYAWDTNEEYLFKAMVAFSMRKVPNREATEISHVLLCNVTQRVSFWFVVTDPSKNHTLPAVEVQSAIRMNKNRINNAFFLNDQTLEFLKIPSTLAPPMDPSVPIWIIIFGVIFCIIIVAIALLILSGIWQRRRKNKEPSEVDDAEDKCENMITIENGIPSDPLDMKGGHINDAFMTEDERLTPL

SMILES	cell confluence (Figure 6F) (HPAFII cells)	lethality (SKOV3 xenografts; dose raised from 4.0 mg/kg/day to 7.5 mg/kg/day, 18-days treatment)	body weight (SKOV3 xenografts)	tumour growth (SKOV3 xenografts)	lactate production (HCC1806 cells [1])	glutamine consumption (HCC1806 cells [2])	inhibition of glucose uptake (GLUT1 [3]; 1 µM, 100 µM glucose)	Glucose uptake (nmol / mg protein x 6 min) (GLUT1 [3]; HPAFII, 1uM)	inhibition of glucose uptake (GLUT1 [4]; 1 µM, 100 µM glucose)	Glucose uptake (nmol / mg protein x 6 min) (GLUT1 [4]; MDA-MB-231, 1uM)	inhibition of glucose uptake (GLUT1 [5]; 1 µM, 100 µM glucose)	Glucose uptake (nmol / mg protein x 6 min) (GLUT1 [5]; SKOV3, 1uM)	cell confluence (Figure 6F) (MDA-MB-231 cells)	growth of HCC1806 cells (HCC1806 cells [6])	oral availability and tolerability [7]	Leucine uptake, Mean (B0AT1 (SLC6A19)) [nmol / mg protein x 6 min]
Cc1c(NC(=O)c2cc(C(N)=O)nc3cc(F)ccc23)c(C(F)(F)F)nn1Cc1ccc(C#N)cc1 [Bay-876]	97.55 and 97.2 and 90.5	caused the death of all animals	did not reduce body weight	reduced the growth of SKOV3 xenografts	blocked completely	accelerated	inhibited glucose uptake to comparable levels as 2-DG	2.423 nmol / mg protein x 6 min and 2.258 nmol / mg protein x 6 min and 2.749 nmol / mg protein x 6 min	inhibited glucose uptake to comparable levels as 2-DG	4.491 nmol / mg protein x 6 min and 4.087 nmol / mg protein x 6 min and 3.799 nmol / mg protein x 6 min	inhibited glucose uptake to comparable levels as 2-DG	2.054 nmol / mg protein x 6 min and 1.028 nmol / mg protein x 6 min and 1.361 nmol / mg protein x 6 min	97.85 and 98.65 and 98.1	quite sensitive	orally available and tolerated in mice	–
CCNC(=O)/C=C/c1cccc(Br)c1 [Cinromide]	–	–	–	–	–	–	–	–	–	–	–	–	–	–	–	19.8324
